{
  "source": "patent US8962576B2",
  "about": "“Compositions and method for improving endothelial function and cardiovascular health” (Natreon, Inc., priority 2012, dated 2015)",
  "format_in_all_cases": "in vivo, human",
  "key": {"Type 2 Diabetic Subjects [1]": {"system": "Type 2 Diabetic Subjects", "assay": "Clotting time, Capillary Tube Method, study (c) subset (i)", "settings": "Table XIV-B, n = 10", "experimental": "Clotting Time: Clotting time in seconds was recorded at baseline and at day 10, after 4 hrs post treatment in all the treatment groups by Capillary Tube Method. Normal Range-300-480 Sec."}, "Type 2 Diabetic Subjects [2]": {"system": "Type 2 Diabetic Subjects", "assay": "Bleeding time, Duke's Method, study (c) subset (i)", "settings": "Table XIV-A, n = 10", "experimental": "Bleeding Time: Bleeding time in seconds was recorded at baseline and at day 10, after 4 hrs post treatment in all the treatment groups by Duke's Method. Normal Range: 60-180 Sec."}, "platelet aggregation": {"system": "platelet aggregation", "assay": "Inhibition of platelet aggregation using ADP as aggregant, study (c) subset (i)", "settings": "Clopidogrel 75 mg single dose Day 1, CAPROS 500 mg BD multiple dose Day 10, combination Day 11, n = 10", "experimental": "The platelet aggregation was determined by the following procedure using Wheecon chronologue dual channel platelet aggregometer (Wheecon Instruments Pvt. Ltd., Chemai, Tamilnadu, India). The percentage decrease in platelet aggregation was recorded at baseline and 3 hours post treatment. Approximately 9 ml of blood sample was collected in a 10 ml plastic test tube containing 1 ml of 3.8% Sodium Citrate from the cubital vein of the subject at baseline and after 3 hours post treatment in all the groups. The test was performed immediately within a time period of one and half hours from collection. The samples were centrifuged at 800 rpm for 15 minutes to obtain a platelet-rich plasma. […] The readings were recorded at baseline and after treatment with ADP. The percentage aggregation at baseline and the percentage inhibition of platelet aggregation on post treatment with all the four treatments was calculated. […]\nThe effect of CAPROS® 500 mg BD (multiple dose study), Clopidogrel 75 mg (single dose study) and Capros 500 mg+Clopidogrel 75 mg on platelet function was determined by the following procedure using the dual channel platelet aggregometer instrument, as described above. The percentage aggregation at baseline and the percentage inhibition of platelet aggregation on post treatment with all the three treatments was calculated."}, "[3]": {"settings": "4th Hr Post treatment, Clopidogrel 75 mg Day 1, CAPROS 500 mg BD Day 10, combination Day 11"}, "[4]": {"settings": "Baseline, Clopidogrel 75 mg single dose, CAPROS 500 mg BD multiple dose, combination"}},
  "data": [
    {"smiles": "COC(=O)[C@H](c1ccccc1Cl)N1CCc2sccc2C1", "note": "[CLOPIDOGREL, Clopidogrel]", "values": [
      {"measurement": "Bleeding Time, Mean", "setting": "Type 2 Diabetic Subjects [1]; [3]", "result": 249.5, "unit": "s"},
      {"measurement": "Bleeding Time, Mean", "setting": "Type 2 Diabetic Subjects [1]; [4]", "result": 207.5, "unit": "s"},
      {"measurement": "Bleeding Time, Mean", "setting": "Type 2 Diabetic Subjects [2]; [3]", "result": 97.30, "unit": "s"},
      {"measurement": "Bleeding Time, Mean", "setting": "Type 2 Diabetic Subjects [2]; [4]", "result": 84.40, "unit": "s"},
      {"measurement": "inhibition of platelet aggregation, Mean", "setting": "platelet aggregation", "result": 47.40, "unit": "%"}
    ]}
  ]
}
